Measurements taken from BindingDB's records for doi:10.1016/j.bmc.2016.08.020 (University of British Columbia, 2016).

Test: Activation of p75NTR in mouse hippocampal neurons assessed as increase in cell survival after 48 hrs by MTT assay

Structure (SMILES): CCC(C)C(N)C(=O)NCCN1CCOCC1 (stereo unspecified)
- EC50: 20 nM
